From BindingDB's records for patent US12209081 (Katholieke Universiteit Leuven, 2025)
pIC50: −log10 of the molar value.

Target: Transient receptor potential cation channel subfamily M member 3 (UniProt J9SQF3)
Experiment: Monitoring the TRPM3 Ion Channel Driven Ca2+ Uptake
Procedure: In order to monitor the inhibition of the mouse TRPM3α2 (mTRPM3) ion channel by the compounds of the invention, a cellular system making use of an mTRPM3alpha2 or hTRPM3 overexpressing cell line (flip-in HEK293) was used. The TRPM3 channel was stimulated/opened with Pregnenolone sulfate (PS) (50 μM) which results in Ca2+ influx. For mTRPM3, the intracellular Ca2+ was measured with a Calcium responsive dye. Fluor-4 AM ester (Invitrogen). Cells were cultured until a confluence of 80-90%, washed with Versene (Invitrogen) and detached from the surface by a short incubation with 0.05% Trypsin (Invitrogen). The trypsination process was stopped by the addition of complete cell culture medium (DMEM, glutamax, 10% FCS,NEAA,Pen-Strep). Cells were collected and resuspended in Krebs buffer without Calcium at RT. Prior the cell seeding (±2000 cells/well into a black, 384 well plate (Greiner)) the diluted compound was added in the assay plate, together with the PS dissolved in Krebs buffer containing Calcium. […] Directly after cell addition the plates were read on an Envision fluorescence reader (Perkin Elmer) by an Excitation of 485 nm and emission at 535 nm. Channel inhibition was calculated compared to a non-PS stimulated control versus a condition stimulated with PS (50 μM) with vehicle. The ability of the compounds of the invention to inhibit this activity was determined as: Percentage inhibition=[1-((RFU determined for sample with test compound present—RFU determined for sample with positive control inhibitor) divided by (RFU determined in the presence of vehicle—RFU determined for sample with positive control inhibitor))]*100.

Transient receptor potential cation channel subfamily M member 3, sequence (J9SQF3 whole entry): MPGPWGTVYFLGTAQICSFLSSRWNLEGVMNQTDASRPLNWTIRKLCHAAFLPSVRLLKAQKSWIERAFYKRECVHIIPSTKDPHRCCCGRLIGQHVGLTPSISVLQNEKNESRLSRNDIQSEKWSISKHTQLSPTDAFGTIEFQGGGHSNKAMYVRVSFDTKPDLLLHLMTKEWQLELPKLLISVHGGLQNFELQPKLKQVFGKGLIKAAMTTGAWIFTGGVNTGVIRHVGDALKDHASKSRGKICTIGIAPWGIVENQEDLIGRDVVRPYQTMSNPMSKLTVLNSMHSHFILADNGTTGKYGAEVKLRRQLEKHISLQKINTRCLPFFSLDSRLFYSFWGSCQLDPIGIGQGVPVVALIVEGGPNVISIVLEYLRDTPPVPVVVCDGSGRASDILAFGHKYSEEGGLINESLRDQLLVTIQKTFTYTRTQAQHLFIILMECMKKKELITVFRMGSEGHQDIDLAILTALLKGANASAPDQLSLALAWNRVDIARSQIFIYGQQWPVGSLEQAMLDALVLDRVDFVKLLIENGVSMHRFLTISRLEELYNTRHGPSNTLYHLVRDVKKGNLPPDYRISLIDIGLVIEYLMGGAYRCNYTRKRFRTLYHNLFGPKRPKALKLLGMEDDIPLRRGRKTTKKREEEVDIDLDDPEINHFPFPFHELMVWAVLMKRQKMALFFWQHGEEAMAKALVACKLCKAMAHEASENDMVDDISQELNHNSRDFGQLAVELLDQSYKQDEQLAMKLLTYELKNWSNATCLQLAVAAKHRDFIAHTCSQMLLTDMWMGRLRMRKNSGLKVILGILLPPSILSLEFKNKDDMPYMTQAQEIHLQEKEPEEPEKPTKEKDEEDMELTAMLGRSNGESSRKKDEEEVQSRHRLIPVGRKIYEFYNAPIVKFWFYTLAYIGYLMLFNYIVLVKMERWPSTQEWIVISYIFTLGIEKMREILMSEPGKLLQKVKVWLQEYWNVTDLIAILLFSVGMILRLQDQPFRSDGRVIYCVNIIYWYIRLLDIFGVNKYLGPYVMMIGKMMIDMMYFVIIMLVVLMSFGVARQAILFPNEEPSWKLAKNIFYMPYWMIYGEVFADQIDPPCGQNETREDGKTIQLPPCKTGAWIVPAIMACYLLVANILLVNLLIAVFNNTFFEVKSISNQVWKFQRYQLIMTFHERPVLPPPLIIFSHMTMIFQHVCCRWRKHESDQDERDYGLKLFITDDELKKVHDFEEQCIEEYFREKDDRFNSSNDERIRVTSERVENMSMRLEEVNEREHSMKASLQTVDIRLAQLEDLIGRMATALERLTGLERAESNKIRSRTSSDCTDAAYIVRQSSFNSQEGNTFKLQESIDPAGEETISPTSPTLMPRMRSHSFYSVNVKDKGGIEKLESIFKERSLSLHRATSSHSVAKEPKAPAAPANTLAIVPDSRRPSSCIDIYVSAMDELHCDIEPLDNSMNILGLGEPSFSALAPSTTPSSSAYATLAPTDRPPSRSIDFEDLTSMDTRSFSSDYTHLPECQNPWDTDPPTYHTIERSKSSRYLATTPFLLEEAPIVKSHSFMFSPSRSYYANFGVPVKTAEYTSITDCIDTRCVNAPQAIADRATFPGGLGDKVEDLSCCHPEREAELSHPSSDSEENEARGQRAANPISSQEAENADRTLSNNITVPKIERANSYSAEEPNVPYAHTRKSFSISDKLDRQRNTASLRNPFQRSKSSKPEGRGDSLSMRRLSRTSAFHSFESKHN

Row | pIC50 | SMILES
1 | > 6.00 | Cc1oc2ccc(OCc3cccnc3C#N)cc2c1C(=O)NC1(CO)CCOCC1 [US12209081, Compound 347]
2 | < 4.70 | Cc1oc2ccc(OCc3cncc(C(F)(F)F)c3)cc2c1C(=O)N[C@H]1CCNC1 [US12209081, Compound 055]
3 | > 6.00 | Cc1oc2ccc(OCc3ccnn3CC(F)F)cc2c1C(=O)N[C@H](CO)C(N)=O [US12209081, Compound 456-En-2]
4 | > 6.00 | Cc1oc2ccc(OCc3cccnc3C(F)(F)F)cc2c1C(=O)NC1(CO)COC1 [US12209081, Compound 133]
5 | > 6.00 | Cc1oc2ccc(OCc3cccnn3)cc2c1C(=O)NC1CCNC1=O (stereo not drawn) [US12209081, Compound 030]
6 | > 6.00 | Cc1nc(C)c(COc2ccc3oc(C)c(C(=O)N[C@H](CO)C(N)=O)c3c2)s1 [US12209081, Compound 458-En-2]
7 | > 6.00 | Cc1oc2ccc(OCc3cccnc3C(F)(F)F)cc2c1C(=O)Nc1cc[nH]n1 [US12209081, Compound 138]
8 | > 6.00 | Cc1ncsc1COc1ccc2oc(C)c(C(=O)NC3(CN)CCC3)c2c1 [US12209081, Compound 137]
